Legend:
Assay type in all cases: in vivo, SKH-1 hairless mice
[1] = system: dorsal skin of the mice, irradiated with ultraviolet light; experiment: Skin water-holding capacity (Multi Probe Adapter MPA 6); details: UVB-irradiated mice, oral 8 weeks, compared with CON
Procedure: (§1) A total of seven experimental groups (six animals per group) were defined as a normal control group (normal, not UVB-induced), a negative control group (control, UVB-irradiated), a GOS alone treatment group (GOS 200 mg/kg, UVB-irradiated) and a CTP alone treatment group (CTP 200 mg/kg, UVB-irradiated), a GOS/CTP 1:3 mixed treatment group (GOS/CTP 50:150 mg/kg, UVB-irradiated), a GOS/CTP 1:1 mixed treatment group (100:100 mg/kg, UVB-irradiated), and a GOS/CTP 3:1 mixed treatment group (GOS/CTP 150:50 mg/kg, UVB-irradiated).
(§2) The mice were acclimated for one week, and then photo-aging was induced in the mice of six groups except for the normal control group (NOR) by exposing their dorsal skin to ultraviolet light three times a week for 8 weeks through the ultraviolet irradiation device (BLX-E254, Vilber Lourmat, France) equipped with the UVB-ultraviolet lamp (T-8M; Vilber Lourmat, France) (Hong et al., 2015). As for the dosage of ultraviolet irradiation, the irradiation dosage inside the ultraviolet irradiation device was measured by the UV light meter (UV-340; Lutron, Taiwan) and adjusted, and then the UVB dosage was controlled as shown in Table 1. […]

[2] = system: MMP2; experiment: qRT-PCR of skin tissue, MMP 2; details: compared with CON
Procedure: (§3) In order to investigate the effects of the compositions of the present disclosure on the expression of skin condition-related genes, the present inventors measured the expression levels of collagen type I, matrix metalloproteinase (MMP) 2/3/9, TIMP1/2, hyaluronidase (HYAL), and NF-K in comparison with GAPDH.
(§4) Specifically, about 100 mg of the skin tissue was collected from each mouse of the experimental groups administered the compositions of the present disclosure, and total RNA was isolated using TRIzol reagent. To the isolated RNA was added 50 μM Oligo-(dT) primer and 10 mM dNTP mix, followed by reaction at […] for 5 minutes, and then 5×RT Buffer, 0.1 M DTT, RNaseOUT, SuperScript III, and 25 mM MgCl2 were added with mixing, followed by reaction under conditions of 50° C. for 50 minutes and 85° C. for 5 minutes. RNase H was added and incubated at 37° C. for 20 minutes, thereby synthesizing cDNA from mRNA. To perform POR, 1 μL of the synthesized cDNA was mixed with primers, SYBR green gene expression master mix, and DEPO water, followed by qPCR. The expression level of each target gene was indicated as a relative expression level compared with the NOR group.

[3] = Short-chain fatty acid (SCFA) analysis of caecum using GC
Procedure: The caecum of the mouse was harvested and extracted with methanol, and then the extract was analyzed for SCFA by using gas chromatography (Agilent Technologies, CA, USA) equipped with GC column (DB-FFAP 123-3253, 50 m×0.32 mm×[…]). The column temperature was set to be maintained at 100° C. for 1 minute, raised to 180° C. at a rate of 8° C./min, then raised to 200° C. at a rate of 20° C./min, and then stagnant at 200° C. for 5 min. The SCFA contents in the caecum were analyzed through the standard materials of acetic acid, propionic acid, and butyric acid.

[4] = system: TIMP1; experiment: qRT-PCR of skin tissue, TIMP 1; details: compared with CON
Procedure: as §3, §4

[5] = system: intestinal microflora; experiment: Intestinal microflora change analysis (16S rRNA sequencing of caecum); details: photo-aging model, oral
Description: The caecum of the mouse was harvested, and subjected to extraction using the i-genome clinic DNA extraction kit. The 16S rRNA library was constructed through the protocol of Illumina 16S V3˜V4 Amplicon (Illumina, San Diego, Calif., USA). The 16S rRNA V3-V4 region was amplified by the first polymerase chain reaction (PCR-1) using the DNA extract, and the PCR product was purified using Agencourt AMPure XP Beads (Beckman Coulter, Inc., Pasadena, Calif., USA), and the washed amplicons were quantified. The PCR product was used as a template for the second PCR (PCR-II) with Illumina dual index adapter sequence, and the final amplicon library was sequenced using the v3, 600 cycle kit and 301 base paired-end chemistry. Sequence data analysis was performed through QIIME 2 software, and then quality filtering was performed. […] The operational taxonomic units (OTUs) of the sequence were analyzed, and the alpha diversity analysis included the Richness, Shannon Index, and Abundance-based Coverage Estimator (ACE) indexes. […] The Kruskal-Wallis test was performed to analyze the diversity of the intestinal microflora and the difference in relative abundance, and the difference in beta diversity was analyzed by the ANOSIM and permutational multivariate analysis of variance (PERMANOVA) tests.

[6] = system: dorsal skin of the mice, irradiated with ultraviolet light; experiment: Erythema value; details: UVB-irradiated mice, oral 8 weeks, compared with CON; no significant difference
Procedure: as §1, §2

collagen tripeptide [CTP]
change in water-holding capacity before and after ultraviolet irradiation [1]: significantly increased
gene expression level of MMP 2 [2]: significantly decreased
content of butyric acid [3]: significantly increased
content of valeric acid ([3]; compared with CON): significant increase
total short-chain fatty acid content ([3]; compared with CON): tendency of increase
content of propionic acid ([3]; compared with CON, no significant difference): tended to increase
gene expression level of TIMP 1 [4]: significantly increased
Firmicutes/Bacteroidetes ratio [5]: tended to increase
change in erythema value before and after ultraviolet irradiation [6]: tended to decrease

Source: patent US20220304356A1, “FUNCTIONAL FOOD COMPOSITIONS AND COSMETIC COMPOSITIONS COMPRISING GALACTO-OLIGOSACCHARIDES, OR GALACTOOLIGOSACCHARIDES AND COLLAGEN TRIPEPTIDE FOR IMPROVING IMMUNE FUNCTIONS AND SKIN CONDITION” (NEO CREMAR CO., LTD., priority 2020, published 2022)
